What was measured:
[1] = biological target: Mitogen-activated protein kinase 10 (Homo sapiens) (UniProt P53779); assay: MAPK10 SGC Tm panel (DSF); conditions: Compound concentration 20.0 uM
[2] = biological target: Alpha-2A adrenergic receptor (Homo sapiens) (UniProt P08913); conditions: Compound concentration 10.0 uM
[3] = biological target: T1, Zinc finger and BTB domain-containing protein 11 (Homo sapiens) (UniProt O95625); conditions: SUD4, Compound concentration 1.0 uM
T1 sequence (whole entry): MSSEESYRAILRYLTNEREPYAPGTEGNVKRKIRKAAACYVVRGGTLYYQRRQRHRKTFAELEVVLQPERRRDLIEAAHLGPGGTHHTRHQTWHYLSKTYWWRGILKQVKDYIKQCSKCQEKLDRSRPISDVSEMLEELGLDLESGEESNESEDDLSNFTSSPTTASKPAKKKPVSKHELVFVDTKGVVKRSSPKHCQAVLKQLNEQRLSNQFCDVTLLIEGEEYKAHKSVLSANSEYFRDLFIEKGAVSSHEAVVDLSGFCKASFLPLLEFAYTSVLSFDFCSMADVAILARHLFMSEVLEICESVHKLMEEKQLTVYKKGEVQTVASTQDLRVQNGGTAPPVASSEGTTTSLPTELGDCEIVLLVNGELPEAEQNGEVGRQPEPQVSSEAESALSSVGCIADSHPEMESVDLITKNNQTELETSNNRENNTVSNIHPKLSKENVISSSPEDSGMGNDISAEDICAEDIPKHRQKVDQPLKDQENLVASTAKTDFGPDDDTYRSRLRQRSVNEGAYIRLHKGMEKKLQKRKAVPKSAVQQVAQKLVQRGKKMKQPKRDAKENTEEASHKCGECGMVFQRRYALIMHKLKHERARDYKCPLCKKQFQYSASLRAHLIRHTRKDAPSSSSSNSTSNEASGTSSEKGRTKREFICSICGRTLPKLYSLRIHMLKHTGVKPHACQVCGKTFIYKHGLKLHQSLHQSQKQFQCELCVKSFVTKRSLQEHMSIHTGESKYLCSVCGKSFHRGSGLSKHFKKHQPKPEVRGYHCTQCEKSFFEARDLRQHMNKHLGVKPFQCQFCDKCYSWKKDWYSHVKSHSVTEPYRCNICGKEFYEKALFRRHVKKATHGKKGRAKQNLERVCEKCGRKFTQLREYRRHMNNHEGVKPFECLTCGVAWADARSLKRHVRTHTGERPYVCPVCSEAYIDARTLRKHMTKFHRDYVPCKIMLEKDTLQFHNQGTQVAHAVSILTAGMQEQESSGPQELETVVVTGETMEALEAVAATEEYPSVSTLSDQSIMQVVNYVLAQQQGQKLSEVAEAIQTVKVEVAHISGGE

[4] = biological target: Proto-oncogene tyrosine-protein kinase Src (Homo sapiens) (UniProt P12931); assay: SRC SGC Tm panel (DSF); conditions: Compound concentration 20.0 uM
Proto-oncogene tyrosine-protein kinase Src (Homo sapiens), sequence (P12931 2-536 limits assumed): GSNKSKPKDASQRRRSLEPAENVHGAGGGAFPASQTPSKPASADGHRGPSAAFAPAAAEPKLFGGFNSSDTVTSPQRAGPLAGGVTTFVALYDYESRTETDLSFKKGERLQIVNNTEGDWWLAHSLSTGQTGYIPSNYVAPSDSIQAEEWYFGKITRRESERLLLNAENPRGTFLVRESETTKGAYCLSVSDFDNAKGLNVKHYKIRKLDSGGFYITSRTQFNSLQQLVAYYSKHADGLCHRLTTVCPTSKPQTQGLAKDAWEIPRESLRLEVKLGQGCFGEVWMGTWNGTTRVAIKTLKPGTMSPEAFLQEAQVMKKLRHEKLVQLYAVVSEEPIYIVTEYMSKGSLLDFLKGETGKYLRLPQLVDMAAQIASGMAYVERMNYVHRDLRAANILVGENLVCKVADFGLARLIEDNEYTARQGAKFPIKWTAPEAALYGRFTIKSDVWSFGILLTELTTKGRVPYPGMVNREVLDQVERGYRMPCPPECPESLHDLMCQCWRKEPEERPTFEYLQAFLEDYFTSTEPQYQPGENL

[5] = biological target: Zinc finger and BTB domain-containing protein 7A (Homo sapiens) (UniProt O95365); conditions: SUD4, Compound concentration 1.0 uM
Zinc finger and BTB domain-containing protein 7A (Homo sapiens), sequence (O95365 whole entry, the tested form may be a part): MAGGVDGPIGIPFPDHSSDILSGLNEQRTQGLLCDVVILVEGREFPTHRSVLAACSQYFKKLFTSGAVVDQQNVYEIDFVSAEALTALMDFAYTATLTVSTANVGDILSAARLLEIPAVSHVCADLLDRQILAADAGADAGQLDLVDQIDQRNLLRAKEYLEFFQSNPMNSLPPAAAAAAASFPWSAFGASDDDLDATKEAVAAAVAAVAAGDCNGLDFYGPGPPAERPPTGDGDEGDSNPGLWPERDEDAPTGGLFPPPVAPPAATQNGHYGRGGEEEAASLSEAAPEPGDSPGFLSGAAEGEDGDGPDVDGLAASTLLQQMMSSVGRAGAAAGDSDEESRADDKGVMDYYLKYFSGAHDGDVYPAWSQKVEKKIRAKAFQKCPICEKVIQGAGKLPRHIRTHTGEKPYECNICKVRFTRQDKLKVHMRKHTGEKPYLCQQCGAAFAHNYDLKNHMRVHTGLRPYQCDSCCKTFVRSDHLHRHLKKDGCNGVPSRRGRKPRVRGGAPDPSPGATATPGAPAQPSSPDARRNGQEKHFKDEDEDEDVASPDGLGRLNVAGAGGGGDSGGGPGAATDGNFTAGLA

[6] = biological target: Beta-3 adrenergic receptor (Homo sapiens, UniProt P13945); conditions: Compound concentration 10.0 uM
Beta-3 adrenergic receptor, sequence (P13945 whole entry, looked up): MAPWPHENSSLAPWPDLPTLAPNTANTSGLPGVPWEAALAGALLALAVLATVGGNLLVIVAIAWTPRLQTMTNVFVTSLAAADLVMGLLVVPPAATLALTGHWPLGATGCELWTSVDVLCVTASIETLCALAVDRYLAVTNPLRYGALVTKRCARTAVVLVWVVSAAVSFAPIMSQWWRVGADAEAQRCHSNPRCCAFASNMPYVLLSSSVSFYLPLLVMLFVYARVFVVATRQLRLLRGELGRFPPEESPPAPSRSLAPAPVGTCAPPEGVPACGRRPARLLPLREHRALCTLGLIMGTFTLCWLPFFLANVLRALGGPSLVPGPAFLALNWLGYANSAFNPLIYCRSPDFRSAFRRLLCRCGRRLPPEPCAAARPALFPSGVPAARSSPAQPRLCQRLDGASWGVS

[7] = biological target: Serine/threonine-protein kinase 24 (Homo sapiens) (UniProt Q9Y6E0); assay: STK24 SGC Tm panel (DSF); conditions: Compound concentration 20.0 uM
Serine/threonine-protein kinase 24 (Homo sapiens), sequence (Q9Y6E0 whole entry, looked up): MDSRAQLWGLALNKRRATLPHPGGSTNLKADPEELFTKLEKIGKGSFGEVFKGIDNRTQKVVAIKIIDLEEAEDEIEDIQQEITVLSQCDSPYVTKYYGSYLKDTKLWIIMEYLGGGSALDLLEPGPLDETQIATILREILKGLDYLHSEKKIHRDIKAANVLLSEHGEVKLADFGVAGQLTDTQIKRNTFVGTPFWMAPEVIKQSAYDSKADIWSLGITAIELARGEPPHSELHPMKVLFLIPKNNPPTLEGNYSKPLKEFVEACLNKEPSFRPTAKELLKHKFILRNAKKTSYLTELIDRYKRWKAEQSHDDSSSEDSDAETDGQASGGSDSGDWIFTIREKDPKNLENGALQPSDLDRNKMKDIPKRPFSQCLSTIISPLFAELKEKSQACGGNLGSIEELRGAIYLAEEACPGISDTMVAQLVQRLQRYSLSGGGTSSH

[8] = biological target: Mitogen-activated protein kinase kinase kinase 5 (Homo sapiens) (UniProt Q99683); assay: MAP3K5 SGC Tm panel (DSF); conditions: Compound concentration 20.0 uM
[9] = biological target: Muscarinic acetylcholine receptor M3 (Homo sapiens) (UniProt P20309); conditions: Compound concentration 10.0 uM
Muscarinic acetylcholine receptor M3 (Homo sapiens), sequence (P20309 whole entry, looked up): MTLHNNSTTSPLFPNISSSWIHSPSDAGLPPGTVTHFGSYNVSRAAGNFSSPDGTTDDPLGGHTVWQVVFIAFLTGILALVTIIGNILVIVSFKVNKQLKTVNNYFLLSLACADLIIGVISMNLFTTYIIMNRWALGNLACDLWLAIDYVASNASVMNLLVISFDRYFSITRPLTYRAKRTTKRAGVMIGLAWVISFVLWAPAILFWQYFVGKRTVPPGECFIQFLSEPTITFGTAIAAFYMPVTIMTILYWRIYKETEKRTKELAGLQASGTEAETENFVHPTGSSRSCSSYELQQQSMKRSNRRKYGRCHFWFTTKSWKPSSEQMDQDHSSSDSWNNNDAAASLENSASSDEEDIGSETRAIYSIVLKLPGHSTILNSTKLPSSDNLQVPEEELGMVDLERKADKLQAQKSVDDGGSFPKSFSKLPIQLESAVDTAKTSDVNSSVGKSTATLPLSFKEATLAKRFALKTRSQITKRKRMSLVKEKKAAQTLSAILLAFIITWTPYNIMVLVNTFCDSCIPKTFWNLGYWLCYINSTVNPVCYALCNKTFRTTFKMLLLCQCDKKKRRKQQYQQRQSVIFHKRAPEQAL

[10] = biological target: Alpha-1D adrenergic receptor (Homo sapiens) (UniProt P25100); conditions: Compound concentration 10.0 uM
[11] = biological target: Fibroblast growth factor receptor 2 (Homo sapiens) (UniProt P21802); assay: FGFR2 SGC Tm panel (DSF); conditions: Compound concentration 20.0 uM
[12] = biological target: T2, Zinc finger and BTB domain-containing protein 10 (Homo sapiens) (UniProt Q96DT7); conditions: SUD4, Compound concentration 1.0 uM
T2 sequence (whole entry): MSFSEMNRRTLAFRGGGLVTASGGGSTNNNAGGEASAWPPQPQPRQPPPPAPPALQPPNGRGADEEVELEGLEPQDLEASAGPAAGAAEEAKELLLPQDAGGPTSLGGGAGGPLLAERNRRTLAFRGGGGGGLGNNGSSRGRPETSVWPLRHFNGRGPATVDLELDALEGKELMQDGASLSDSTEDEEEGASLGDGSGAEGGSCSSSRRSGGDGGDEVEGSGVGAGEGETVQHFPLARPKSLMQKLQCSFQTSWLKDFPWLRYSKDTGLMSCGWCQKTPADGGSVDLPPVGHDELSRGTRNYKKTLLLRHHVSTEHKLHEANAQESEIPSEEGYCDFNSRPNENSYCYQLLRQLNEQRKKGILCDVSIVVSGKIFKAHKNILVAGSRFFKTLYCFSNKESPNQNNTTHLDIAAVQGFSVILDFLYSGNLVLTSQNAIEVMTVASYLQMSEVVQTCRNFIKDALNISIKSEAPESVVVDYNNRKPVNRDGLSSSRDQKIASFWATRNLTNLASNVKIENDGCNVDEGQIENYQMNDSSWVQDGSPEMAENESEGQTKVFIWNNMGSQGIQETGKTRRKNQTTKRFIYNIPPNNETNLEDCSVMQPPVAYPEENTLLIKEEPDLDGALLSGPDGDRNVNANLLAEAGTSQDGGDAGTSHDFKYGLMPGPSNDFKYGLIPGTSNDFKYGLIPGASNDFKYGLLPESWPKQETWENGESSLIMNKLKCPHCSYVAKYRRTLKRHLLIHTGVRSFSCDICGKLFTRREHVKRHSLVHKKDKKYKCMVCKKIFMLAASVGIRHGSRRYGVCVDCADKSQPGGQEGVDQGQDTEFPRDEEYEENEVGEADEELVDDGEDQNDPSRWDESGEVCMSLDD

[13] = biological target: Calcium/calmodulin-dependent protein kinase type II subunit delta (Homo sapiens) (UniProt Q13557); assay: CAMK2D SGC Tm panel (DSF); conditions: Compound concentration 20.0 uM
Calcium/calmodulin-dependent protein kinase type II subunit delta (Homo sapiens), sequence (Q13557 whole entry): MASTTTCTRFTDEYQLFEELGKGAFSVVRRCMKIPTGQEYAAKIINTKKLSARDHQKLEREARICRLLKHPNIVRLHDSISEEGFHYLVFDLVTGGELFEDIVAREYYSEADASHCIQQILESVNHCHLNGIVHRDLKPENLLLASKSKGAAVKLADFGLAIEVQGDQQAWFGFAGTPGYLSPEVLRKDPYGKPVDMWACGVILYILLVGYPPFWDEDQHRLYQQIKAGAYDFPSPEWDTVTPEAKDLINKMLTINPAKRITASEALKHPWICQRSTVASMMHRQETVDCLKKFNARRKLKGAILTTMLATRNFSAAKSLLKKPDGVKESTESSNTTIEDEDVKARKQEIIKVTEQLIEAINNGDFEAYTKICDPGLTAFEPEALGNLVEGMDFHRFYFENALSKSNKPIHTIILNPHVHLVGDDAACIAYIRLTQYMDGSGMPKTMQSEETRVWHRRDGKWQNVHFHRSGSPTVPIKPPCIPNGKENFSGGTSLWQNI

[14] = biological target: Calcium/calmodulin-dependent protein kinase type II subunit beta (Homo sapiens) (UniProt Q13554); assay: CAMK2B SGC Tm panel (DSF); conditions: Compound concentration 20.0 uM
Calcium/calmodulin-dependent protein kinase type II subunit beta (Homo sapiens), sequence (Q13554 whole entry): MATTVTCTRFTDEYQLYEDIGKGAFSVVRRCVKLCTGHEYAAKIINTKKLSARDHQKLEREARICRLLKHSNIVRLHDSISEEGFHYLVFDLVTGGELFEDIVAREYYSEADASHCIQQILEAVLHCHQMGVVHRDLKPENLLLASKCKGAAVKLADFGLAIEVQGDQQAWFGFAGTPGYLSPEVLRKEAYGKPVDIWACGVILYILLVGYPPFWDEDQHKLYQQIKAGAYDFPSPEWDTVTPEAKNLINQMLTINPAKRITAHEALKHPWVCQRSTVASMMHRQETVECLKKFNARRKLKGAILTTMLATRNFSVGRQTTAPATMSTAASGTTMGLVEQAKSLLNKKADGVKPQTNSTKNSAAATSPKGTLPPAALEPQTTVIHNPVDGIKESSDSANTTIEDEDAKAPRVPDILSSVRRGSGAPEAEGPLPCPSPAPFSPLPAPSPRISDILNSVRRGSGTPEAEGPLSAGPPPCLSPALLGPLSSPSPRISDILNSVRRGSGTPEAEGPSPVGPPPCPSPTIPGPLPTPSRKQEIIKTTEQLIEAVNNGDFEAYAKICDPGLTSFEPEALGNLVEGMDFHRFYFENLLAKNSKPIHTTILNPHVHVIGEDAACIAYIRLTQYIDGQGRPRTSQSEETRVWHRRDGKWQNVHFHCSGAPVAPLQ

Mitogen-activated protein kinase 10 (Homo sapiens), sequence (P53779 whole entry): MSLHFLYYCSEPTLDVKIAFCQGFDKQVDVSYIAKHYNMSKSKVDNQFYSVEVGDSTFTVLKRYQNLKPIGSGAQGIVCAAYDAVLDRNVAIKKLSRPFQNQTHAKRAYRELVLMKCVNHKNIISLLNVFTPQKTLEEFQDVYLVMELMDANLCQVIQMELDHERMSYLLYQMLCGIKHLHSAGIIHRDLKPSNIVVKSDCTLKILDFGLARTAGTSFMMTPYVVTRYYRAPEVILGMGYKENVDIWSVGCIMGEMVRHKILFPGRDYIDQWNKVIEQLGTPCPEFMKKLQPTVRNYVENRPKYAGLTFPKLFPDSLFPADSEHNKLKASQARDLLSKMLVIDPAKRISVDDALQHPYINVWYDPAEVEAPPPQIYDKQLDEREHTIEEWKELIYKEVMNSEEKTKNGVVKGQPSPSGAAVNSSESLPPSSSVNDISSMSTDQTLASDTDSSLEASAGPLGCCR
Alpha-2A adrenergic receptor (Homo sapiens), sequence (P08913 whole entry, the tested form may be a part): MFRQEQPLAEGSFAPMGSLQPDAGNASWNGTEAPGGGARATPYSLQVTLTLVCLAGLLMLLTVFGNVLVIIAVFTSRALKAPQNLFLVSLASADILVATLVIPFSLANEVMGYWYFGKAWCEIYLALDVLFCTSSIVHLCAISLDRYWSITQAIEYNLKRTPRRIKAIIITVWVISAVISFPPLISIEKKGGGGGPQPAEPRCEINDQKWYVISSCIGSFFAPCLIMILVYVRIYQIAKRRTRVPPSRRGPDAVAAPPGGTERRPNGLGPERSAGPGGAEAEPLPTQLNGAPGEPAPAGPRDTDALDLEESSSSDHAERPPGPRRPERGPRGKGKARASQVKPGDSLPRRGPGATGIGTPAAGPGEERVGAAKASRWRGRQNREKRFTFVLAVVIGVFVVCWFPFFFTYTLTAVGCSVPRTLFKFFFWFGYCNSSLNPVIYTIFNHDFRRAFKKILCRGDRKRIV

`C[C@@H]1CN(c2ncc(Cl)c(Nc3ccc4c(c3)n(CCC(C)(C)O)c(=O)n4C)n2)C[C@H](C)C1(F)F` was tested, and the Tm [1] was 48 °C, the inhibition [2] was 14% and the LogFC [3] was 0.0341. For the same molecule, the Tm [4] was 53 °C, the LogFC [5] was 0.0336 and the inhibition [6] was 65.3%. It also gave a Tm [7] of 36 °C, a Tm [8] of 40 °C and an inhibition [9] of 12%. It also gave an inhibition [10] of 16%, a Tm [11] of 50 °C and a LogFC [12] of 0.0283. It also gave a Tm [13] of 47 °C and a Tm [14] of 47 °C.
